The results in this text go back to PMC5538713, “RORγt and RORα signature genes in human Th17 cells” (PLoS ONE, 2017).

In one experiment the test system is SST. Description: Cerep selectivity panel. The experiment is classed as binding. In outline:
(§1)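 Single-point testing at 1 µM and again at 10 µM; targets belong to an outsourced panel of 50 receptors, ion channels and transporters.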

A further experiment addresses T1, M2 (h) (Homo sapiens, UniProt P08172).
T1 construct: purchased Cerep
T1 sequence (P08172 1-466): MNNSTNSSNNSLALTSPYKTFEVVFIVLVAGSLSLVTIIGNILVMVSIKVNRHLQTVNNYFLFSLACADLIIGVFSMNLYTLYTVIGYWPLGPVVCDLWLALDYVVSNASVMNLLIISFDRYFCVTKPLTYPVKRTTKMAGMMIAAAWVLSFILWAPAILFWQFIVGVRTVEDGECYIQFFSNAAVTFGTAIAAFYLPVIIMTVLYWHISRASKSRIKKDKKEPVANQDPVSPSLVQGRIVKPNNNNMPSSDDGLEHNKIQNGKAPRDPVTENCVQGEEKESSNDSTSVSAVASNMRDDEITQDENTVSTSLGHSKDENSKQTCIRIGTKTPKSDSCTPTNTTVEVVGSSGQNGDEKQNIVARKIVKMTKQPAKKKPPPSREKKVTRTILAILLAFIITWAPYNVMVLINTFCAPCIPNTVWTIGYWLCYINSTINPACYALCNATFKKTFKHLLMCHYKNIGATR
The experiment can be described thus: Cerep selectivity panel. Format: binding. In outline: as §1

The test system of a further experiment is Ca2+ Channel. The experiment can be described thus: Cerep selectivity panel. Format: binding. In outline:
as §1

The next experiment relates to K Channel. Description: Cerep selectivity panel. The experiment is classed as binding.
The next experiment addresses T2, M1 (h) (Homo sapiens, UniProt P11229).
T2 construct: purchased Cerep
T2 sequence (P11229 1-460): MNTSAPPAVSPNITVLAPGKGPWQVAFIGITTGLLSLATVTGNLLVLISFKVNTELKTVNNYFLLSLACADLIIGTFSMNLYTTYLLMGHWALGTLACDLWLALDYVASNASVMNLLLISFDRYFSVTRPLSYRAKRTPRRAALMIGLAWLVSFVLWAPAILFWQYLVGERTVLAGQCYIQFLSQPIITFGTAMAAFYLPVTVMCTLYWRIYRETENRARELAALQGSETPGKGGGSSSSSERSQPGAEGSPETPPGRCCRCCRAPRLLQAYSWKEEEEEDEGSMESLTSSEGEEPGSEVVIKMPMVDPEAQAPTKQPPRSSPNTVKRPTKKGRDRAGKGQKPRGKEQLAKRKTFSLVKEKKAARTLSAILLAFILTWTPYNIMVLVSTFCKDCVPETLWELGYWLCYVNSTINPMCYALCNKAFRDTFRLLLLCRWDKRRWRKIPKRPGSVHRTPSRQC
The experiment can be described thus: Cerep selectivity panel. Format: binding. Summed up: as §1

The next experiment concerns the target T3, ETA (h) (Homo sapiens, UniProt P25101).
T3 construct: purchased Cerep
T3 sequence (P25101 21-427): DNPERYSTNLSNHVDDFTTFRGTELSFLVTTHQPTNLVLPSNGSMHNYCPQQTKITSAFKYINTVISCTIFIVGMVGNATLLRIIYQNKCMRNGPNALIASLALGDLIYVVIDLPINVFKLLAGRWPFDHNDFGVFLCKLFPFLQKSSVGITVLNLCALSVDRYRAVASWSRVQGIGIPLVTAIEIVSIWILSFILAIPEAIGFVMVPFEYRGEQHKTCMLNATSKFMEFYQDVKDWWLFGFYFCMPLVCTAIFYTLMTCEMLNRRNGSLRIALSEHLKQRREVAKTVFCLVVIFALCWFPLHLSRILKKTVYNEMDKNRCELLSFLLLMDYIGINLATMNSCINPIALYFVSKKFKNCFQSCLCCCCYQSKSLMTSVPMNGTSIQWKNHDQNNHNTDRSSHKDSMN
Description: Cerep selectivity panel. Format: binding. The conditions noted are these: for inhibition at 10 µM: read-out: % Inhibition at 10µM. Summed up:
as §1

In the next experiment the target is T4, human RORγt LBD (Homo sapiens, UniProt P51449).
T4 construct: expressed in transfected cells; host or cells: HEK293T
The experiment can be described thus: RORγt cellular reporter assay (GAL4-RORγt LBD luciferase, HEK293T). The experiment is classed as cell-based. The conditions noted are these: 24 hours, read-out: RORγ/γt Cellular Reporter Assay (IC50). As to the method: Media was removed and cells were lysed with 50 μL 1x Glo Lysis Buffer (Promega). […] To calculate the effect of compounds on RORγt activity, the ratio of firefly to renilla luciferase was determined and plotted against compound concentration. Agonist compounds increase RORγt-driven luciferase expression, and antagonist or inverse agonist compounds decrease luciferase expression. IC50 values were determined using Graphpad Prism.

In a further experiment the target is T5, A1 (h) (Homo sapiens, UniProt P30542).
T5 construct: purchased Cerep
T5 sequence (P30542 1-326): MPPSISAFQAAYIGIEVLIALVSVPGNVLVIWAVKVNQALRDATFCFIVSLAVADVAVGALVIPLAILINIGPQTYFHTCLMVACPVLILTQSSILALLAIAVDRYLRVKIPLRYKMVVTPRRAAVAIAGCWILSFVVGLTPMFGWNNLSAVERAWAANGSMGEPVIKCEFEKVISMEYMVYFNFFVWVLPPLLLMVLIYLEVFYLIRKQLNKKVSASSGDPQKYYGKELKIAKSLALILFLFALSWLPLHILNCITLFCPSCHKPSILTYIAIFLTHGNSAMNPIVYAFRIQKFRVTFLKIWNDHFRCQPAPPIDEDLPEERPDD
Description: Cerep selectivity panel. The conditions noted are these: for inhibition at 1 µM: read-out: % Inhibition at 1µM; for inhibition at 10 µM: read-out: % Inhibition at 10µM. Format: binding. Summed up: as §1

For another experiment, the target named is T6, 5HT7 (h) (Homo sapiens, UniProt P34969).
T6 construct: purchased Cerep
The experiment can be described thus: Cerep selectivity panel. The experiment is classed as binding. The note with it: for inhibition at 10 µM: read-out: % Inhibition at 10µM. In outline: as §1

A further experiment has as its target T7, ɣ1 (h) (Homo sapiens, UniProt P25929).
T7 construct: purchased Cerep
T7 sequence (P25929 1-384): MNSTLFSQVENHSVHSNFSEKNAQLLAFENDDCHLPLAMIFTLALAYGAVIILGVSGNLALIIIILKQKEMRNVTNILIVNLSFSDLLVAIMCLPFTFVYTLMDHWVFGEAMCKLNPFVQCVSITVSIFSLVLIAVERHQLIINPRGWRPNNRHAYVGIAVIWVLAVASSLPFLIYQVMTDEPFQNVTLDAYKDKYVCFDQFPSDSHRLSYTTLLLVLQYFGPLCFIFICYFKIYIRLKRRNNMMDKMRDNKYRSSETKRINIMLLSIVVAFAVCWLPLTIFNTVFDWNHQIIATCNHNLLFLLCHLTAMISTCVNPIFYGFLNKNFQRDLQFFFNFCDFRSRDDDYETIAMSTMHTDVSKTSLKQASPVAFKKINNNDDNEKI
Description: Cerep selectivity panel. Format: binding. The note with it: for inhibition at 1 µM: read-out: % Inhibition at 1µM. In outline:
as §1

Another experiment has as its system Aa2. The experiment can be described thus: Cerep selectivity panel. Format: binding.

The structures appear in SMILES notation. pIC50: −log10 of the molar value. Where two headings read alike, the source gives them in different places.

T6 sequence (P34969 whole entry): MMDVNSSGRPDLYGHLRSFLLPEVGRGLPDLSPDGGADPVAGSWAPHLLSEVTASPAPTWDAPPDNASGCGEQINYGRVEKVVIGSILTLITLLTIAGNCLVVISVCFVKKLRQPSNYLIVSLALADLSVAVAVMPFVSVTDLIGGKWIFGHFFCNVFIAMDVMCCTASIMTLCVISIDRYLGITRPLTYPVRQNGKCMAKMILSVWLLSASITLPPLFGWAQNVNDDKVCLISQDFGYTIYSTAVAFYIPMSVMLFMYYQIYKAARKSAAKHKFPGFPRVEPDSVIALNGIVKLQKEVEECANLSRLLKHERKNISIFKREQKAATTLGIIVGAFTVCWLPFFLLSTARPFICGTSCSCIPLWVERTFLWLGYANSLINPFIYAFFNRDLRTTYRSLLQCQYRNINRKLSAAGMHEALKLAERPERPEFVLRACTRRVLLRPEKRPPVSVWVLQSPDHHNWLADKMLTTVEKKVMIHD
T4 sequence (P51449 269-508 limits assumed): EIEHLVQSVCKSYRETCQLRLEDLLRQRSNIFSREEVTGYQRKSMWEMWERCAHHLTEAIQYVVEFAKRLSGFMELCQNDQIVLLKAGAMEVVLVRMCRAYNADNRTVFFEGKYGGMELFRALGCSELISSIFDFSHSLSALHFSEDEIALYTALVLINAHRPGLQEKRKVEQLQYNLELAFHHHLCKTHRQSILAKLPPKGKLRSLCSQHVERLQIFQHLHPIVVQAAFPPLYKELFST

On to `COc1nc2ccc([C@](O)(c3ccc(Cl)cc3)c3cncn3C)cc2c(Cl)c1Cc1ccc(-n2cccn2)cc1` [B], for which the % Inhibition (commonly the percentage by which the read-out fell short of the control) at 10µM in the experiment on SST is reported as 1%. For the same molecule, on M2 (h), testing at 1 µM gave an inhibition of 16% and the inhibition (commonly the share of the control response that was lost under treatment) at 10 µM was 23%. Further, in the experiment on Ca2+ Channel, the “% Inhibition at 1µM” value was 3% and the “% Inhibition at 10µM” value is given as 21%.

For `COc1nc2ccc([C@@](O)(c3ccccc3)C3CCN(C(C)=O)CC3)cc2c(Cl)c1Cc1ccc(-n2cccn2)cc1` [C], the “% Inhibition at 10µM” value in the experiment on K Channel is reported as 17%. Moreover, on M1 (h), the inhibition at 1 µM was 12% and the inhibition at 10 µM was 21%. Besides, at ETA (h), the inhibition at 10 µM was determined as 12%. For the same molecule, the pIC50 on human RORγt LBD was 7.54.

As to `COc1nc2ccc([C@@](O)(c3ccc(C)nc3C)c3cnnn3C)cc2c(Cl)c1Cc1ccc(C(F)(F)F)cc1` [compound A], the “% Inhibition at 10µM” value in the experiment with K Channel is on record as 9%; with SST, 6%; in the experiment with Ca2+ Channel, 32%; with Aa2, 7%. Moreover, the inhibition at 1 µM turned out to be 19% at A1 (h) (A1 (h), 1 µM); 5% at ETA (h) (ETA (h), 1 µM); 4% against 5HT7 (h) (5HT7 (h), 1 µM); 5% at ɣ1 (h) (ɣ1 (h), 1 µM). Further, the inhibition at 10 µM on A1 (h) (A1 (h), 10 µM) was found to be 30%; at ETA (h) (ETA (h), 10 µM), 4%; at 5HT7 (h) (5HT7 (h), 10 µM), 4%; at ɣ1 (h) (ɣ1 (h), 10 µM), 5%. In addition, the “% Inhibition at 1µM” value in the experiment on Ca2+ Channel is given as 2%.

Take `CN(C)c1nc2ccc(C(O)(c3ccncc3)c3cncn3C)cc2c(Cl)c1-c1ccccc1` (stereo not shown) [compound D]: the inhibition at 1 µM on A1 (h) stood at 18%; against M2 (h) it was 10%; at M1 (h), 6%; at ɣ1 (h), 16%. Also, the inhibition at 10 µM is 50% at A1 (h), 47% on M2 (h), 67% on M1 (h) and 16% on 5HT7 (h).
